This is an account of results in ChEMBL document CHEMBL4402544, “Reasonably activating Nrf2: A long-term, effective and controllable strategy for neurodegenerative diseases” (Eur J Med Chem, 2020).

Molecules are shown by their SMILES. Where a SMILES comes first, the peptide text is derived from it. [ ]: non-standard residue; d: D form. ξ: configuration not given here. ξCha = NC(CC1CCCCC1)C(=O)O; ξThz = O=C(O)C1CSCN1

For orientation: IC50 means the concentration at which inhibition is half-maximal. For orientation: EC50 means the concentration giving half of the maximal effect. Higher therefore signals weaker potency.

Assay [1] deals with Kelch-like ECH-associated protein 1 (Homo sapiens, UniProt Q14145). The assay can be described thus: Binding affinity to Keap1 (unknown origin).
Sequence of Kelch-like ECH-associated protein 1 (Q14145 whole entry): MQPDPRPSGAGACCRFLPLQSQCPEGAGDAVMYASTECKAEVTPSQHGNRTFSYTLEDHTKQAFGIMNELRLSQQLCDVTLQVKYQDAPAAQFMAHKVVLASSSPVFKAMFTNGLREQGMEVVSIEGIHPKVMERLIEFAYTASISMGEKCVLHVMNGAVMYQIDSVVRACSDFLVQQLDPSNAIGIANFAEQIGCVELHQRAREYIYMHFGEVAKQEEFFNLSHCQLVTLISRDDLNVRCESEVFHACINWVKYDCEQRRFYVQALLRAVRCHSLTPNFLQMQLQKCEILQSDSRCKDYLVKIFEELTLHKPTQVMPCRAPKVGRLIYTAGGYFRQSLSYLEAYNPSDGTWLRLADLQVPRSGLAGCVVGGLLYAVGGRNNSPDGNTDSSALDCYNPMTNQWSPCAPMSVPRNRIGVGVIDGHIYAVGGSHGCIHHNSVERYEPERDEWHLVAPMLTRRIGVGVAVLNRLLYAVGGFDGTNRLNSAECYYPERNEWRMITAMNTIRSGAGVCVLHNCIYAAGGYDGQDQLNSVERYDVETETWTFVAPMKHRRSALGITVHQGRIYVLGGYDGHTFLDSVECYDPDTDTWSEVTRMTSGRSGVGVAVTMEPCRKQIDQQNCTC
The target in assay [2] is T1, Nuclear factor erythroid 2-related factor 2 (Homo sapiens) (UniProt Q16236).
T1 sequence (whole entry): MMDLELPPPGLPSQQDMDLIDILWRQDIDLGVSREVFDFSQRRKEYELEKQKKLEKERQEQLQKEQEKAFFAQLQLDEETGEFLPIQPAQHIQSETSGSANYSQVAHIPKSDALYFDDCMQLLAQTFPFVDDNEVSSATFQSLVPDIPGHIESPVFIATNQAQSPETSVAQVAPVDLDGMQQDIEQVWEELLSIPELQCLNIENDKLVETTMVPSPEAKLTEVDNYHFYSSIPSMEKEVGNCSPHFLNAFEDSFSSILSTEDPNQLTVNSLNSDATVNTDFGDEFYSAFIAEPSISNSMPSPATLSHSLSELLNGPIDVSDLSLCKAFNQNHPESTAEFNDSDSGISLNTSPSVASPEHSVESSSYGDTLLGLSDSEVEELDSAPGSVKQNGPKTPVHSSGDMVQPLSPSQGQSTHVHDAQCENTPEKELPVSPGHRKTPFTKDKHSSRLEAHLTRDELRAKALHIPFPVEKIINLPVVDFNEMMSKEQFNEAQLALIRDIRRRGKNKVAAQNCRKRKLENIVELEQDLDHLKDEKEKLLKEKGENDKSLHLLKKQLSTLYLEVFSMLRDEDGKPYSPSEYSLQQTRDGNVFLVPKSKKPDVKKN
Description: Activation of Nrf2 in human SK-N-SH cells expressing Nqo1 ARE-Luc reporter plasmid at 10 uM after 18 hrs by luciferase reporter gene assay. It is filed as cell-based. In general terms: Reporter assays use an easily measured gene product as a stand-in for the process of interest.

The target of assay [3] is T1, Nuclear factor erythroid 2-related factor 2 (Homo sapiens). Description: Activation of Nrf2 (unknown origin) assessed as induction of ARE at 60 uM.
Assay [4] can be described thus: Neuroprotection activity in human MC65 cells. Type of assay: functional, cell-based.

With `C[C@@H](O)[C@H](NC(=O)[C@H](CCC(=O)O)NC(=O)C1CSCN1C(=O)[C@@H](N)CC(=O)O)C(=O)NCC(=O)N[C@@H](CCC(=O)O)C(=O)NC(CC1CCCCC1)C(=O)O` (some centres undefined) (H-D[ξThz]ETGE[ξCha]-OH), the IC50 in assay [1] worked out at 31 nM.
Take `C[C@@H]1C(NC(=O)c2ccccc2O)=CC(=O)[C@@H]2O[C@H]12`: the fold change (FC) in assay [2] was more than 4.
Take `C/C=C/C(=O)Oc1ccc2[nH]cc(CCNC(C)=O)c2c1`: the fold change (FC) in assay [3] was found to be 30.7.
In the case of `COc1ccc2[nH]cc(CCNC(=O)CC(=O)CCc3ccc(O)cc3)c2c1`, the response in assay [4] was half-maximal at 27.6 nM (EC50).
